Columns and labels:
[1] = Fluorescence spectral test (PTI QM4 fluorescence spectrometer); type: physicochemical; details: different dyes in chloroform solution
Text: (§1) The following data are the spectral test data of compound 3d in different solvents (UV-visible data are taken from Shimadzu UV2600 UV-visible spectrometer and fluorescence data are taken from PTI QM4 fluorescence spectrometer):
(§2) The following data are the spectral test data of different dyes in chloroform solution: […]

[2] = UV-visible absorption spectral test (Shimadzu UV2600 UV-visible spectrometer); type: physicochemical; details: different dyes in chloroform solution
Text: as §1, §2

Compound	Maximum emission wavelength [1] [nm]	Extinction coefficient [2] [cm^−1M^−1]	Maximum absorption wavelength [2] [nm]
Cc1ccccc1C1=c2cc3c(cc2C2(c4ccccc4Oc4ccccc42)c2cc4cc(O)ccc4cc21)=CC(=O)C=C3 [Compound 4b]	804	131000	779
CCN(CC)c1ccc2cc3c(cc2c1)C1(c2ccccc2Oc2ccccc21)c1cc2c(cc1=C3c1ccccc1C)C=CC(=[N+](CC)CC)C=2 [Compound 1a]	864	217000	836

From patent US10351706B2, “Near-infrared fluorescent dyes and uses thereof” (East China University of Science and Technology, priority 2015, dated 2019)
